These results are taken from US20230405006A1, “COMBINATION PHARMACEUTICAL COMPOSITION AND TREATMENT METHOD” (CARNA BIOSCIENCES, INC., priority 2020, published 2023).

For test [1], the system named is mouse colorectal cancer cell line CT26.WT. Put plainly: Antitumor effect in allograft (syngeneic) mouse model with mouse colorectal cancer cell line CT26.WT. Type of test: in vivo. Conditions: for tumor growth (time course of tumor volume): CT26.WT subcutaneous, FIG. 1. On the procedure:
The antitumor effect of the compound according to the present invention was examined by using a syngeneic mouse tumor model with the mouse colorectal cancer cell line CT26.WT (subcutaneous transplantation).
To RPMI-1640 medium (Life Technologies, No. A1049101), 10% FBS (Biowest) and 1% penicillin streptomycin (NACALAI TESQUE, INC.) were added to prepare a cell culture medium (hereinafter, referred to as the medium 1). CT26.WT cells (ATCC) were cultured with the medium 1 in a flask in a 5% CO2 incubator.
The cell density of CT26.WT cells was adjusted with RPMI-1640 medium (containing 1% penicillin streptomycin, hereinafter, referred to as the medium 2) to 5×10^6 cells/mL; thus a cell preparation solution for transplantation was produced. Into the back of each BALB/cCrslc mouse (female, 8-week-old, Japan SLC, Inc.), 0.1 mL of the cell preparation solution for transplantation was subcutaneously transplanted. On day 3 after the transplantation of cancer cells, the cancer-bearing mice were grouped in such a manner that the means of tumor volume (see a calculation formula below) approximated to each other.
As a sample solution for administration of the test substance, a 1.5 mg/mL solution was prepared. The test substance (71.9 mg) was dissolved in DMSO (2.4 mL, NACALAI TESQUE, INC.), to which polyethylene glycol #400 (24.0 mL, NACALAI TESQUE, INC.) was added and mixed well, and 21.5 mL of 30% (w/v) aqueous solution of 2-hydroxypropyl-β-cyclodextrin (HP-β-CD, Wacker Chemical AG) was then added thereto to produce a 1.5 mg/mL sample solution for administration. […]
Forced oral administration of 0.1 mL of the test substance or a solvent per 10 g body weight on that day (15 mg/kg) was performed to each mouse with transplanted cancer cells (six mice per group) twice per day (interval: 6 hours or longer) from day 3 to day 21 after the transplantation. […] The mice were followed up until day 48 after the transplantation, and the tumor diameter of each mouse was measured to calculate the tumor volume by using the following formula several times per week for evaluation of the antitumor effect. […]

Test [2] concerns mouse B-cell lymphoma cell line A20. Put plainly: Antitumor effect in allograft (syngeneic) mouse model with mouse B-cell lymphoma cell line A20. The class given is in vivo. On the procedure:
The antitumor effect of the compound according to the present invention was examined by using a syngeneic mouse tumor model with the mouse B-cell lymphoma cell line A20 (subcutaneous transplantation).
To RPMI-1640 medium (Life Technologies, No. A1049101), 10% FBS (HyClone), 0.05 mM 2-mercaptoethanol, and 1% penicillin streptomycin (NACALAI TESQUE, INC.) were added to prepare a cell culture medium (hereinafter, referred to as the medium 3). A20 cell (ATCC) were cultured with the medium 3 in a flask in a 5% CO2 incubator.
The density of A20 cells was adjusted with the medium 2 to 5×10^7 cells/mL; thus a cell preparation solution for transplantation was produced. […]
Forced oral administration of 0.1 mL of the test substance or a solvent per 10 g body weight on that day (15 mg/kg) was performed to each mouse with transplanted cancer cells (six mice per group) twice per day (interval: 6 hours or longer) from day 3 to day 14 after the transplantation. […] The mice were followed up until day 46 after the transplantation, and the tumor diameter of each mouse was measured to calculate the tumor volume by using the same formula as in Example 1 several times per week for evaluation of the antitumor effect.
In addition, tumor was excised from each mouse on day 46 after the transplantation, and the tumor weight was measured.

In the case of `Nc1nc(-c2cccc(-n3ccc4cc(C5CC5)cc(F)c4c3=O)c2CO)c2cc(C3=CCN(C4COC4)CC3)[nH]c2n1` [Compound (I-A), 2-(3-{2-amino-6-[1-(oxetan-3-yl)-1,2,3,6-tetrahydropyridin-4-yl]-7H-pyrrolo[2,3-d]pyrimidin-4-yl}-2-(hydroxymethyl)phenyl)-6-cyclopropyl-8-fluoroisoquinolin-1(2H)-one], the “tumor growth (time course of tumor volume)” value in test [1] (I-A 15 mg/kg oral twice per day in combination with anti-PD-1 antibody 10 mg/kg i.p. twice per week) is “significant tumor growth suppression/tumor regression effect”; in test [1] (I-A alone, 15 mg/kg oral twice per day, day 3 to 21, BALB/c mice, followed to day 48), “suppressed tumor growth”. For the same compound, the “complete regression of tumor (mice with transplanted tumor)” value is given as “five of the six” in test [1] (I-A 15 mg/kg oral twice per day in combination with anti-PD-1 antibody 10 mg/kg i.p., CT26.WT, six mice per group) and “five of the six” in test [2] (I-A 15 mg/kg oral twice per day in combination with anti-PD-1 antibody 10 mg/kg i.p., A20, six mice per group). Besides, the “tumor growth / tumor weight on day 46 after the transplantation” value in test [2] (I-A 15 mg/kg oral twice per day (day 3 to 14) in combination with anti-PD-1 antibody 10 mg/kg i.p. twice per week, A20 subcutaneous, FIG. 2) was “significant tumor growth suppression/tumor regression effect”.
